Patent US20250122218A1, “MODULATORS OF CYSTIC FIBROSIS TRANSMEMBRANE CONDUCTANCE REGULATOR” (Vertex Pharmaceuticals Incorporated, priority 2022, published 2025)

Target: T1, CFTR in F508del/MF-HBE cells (Homo sapiens, UniProt P13569, DEL508-508)
T1 construct: human bronchial epithelial (HBE) cells derived from CF subjects heterozygous for F508del and a minimal function CFTR mutation; endogenous in cells; host or cells: primary human bronchial epithelial cells from CF subjects (F508del/MF-HBE)
Assay: Ussing chamber assay of CFTR-mediated short-circuit currents (identification of potentiator compounds)
Type: cell-based
Settings: potentiator incubated 18-24 hours at 37° C. in combination with 10 μM corrector, in the presence of 20% human serum, CFTR-mediated ISC
How it was run: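 F508del/MF-HBE cultures were preincubated 18-24 h at 37° C with potentiator plus 10 μM of a fixed corrector compound in 20% human serum; compounds were kept present during measurement. ISC was recorded under voltage clamp (0 mV, 37° C, amiloride apical) and taken as the 20 μM forskolin peak minus the current after inhibitor cocktail.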

T1 sequence (P13569 with tags, fused parts or gaps DEL508-508): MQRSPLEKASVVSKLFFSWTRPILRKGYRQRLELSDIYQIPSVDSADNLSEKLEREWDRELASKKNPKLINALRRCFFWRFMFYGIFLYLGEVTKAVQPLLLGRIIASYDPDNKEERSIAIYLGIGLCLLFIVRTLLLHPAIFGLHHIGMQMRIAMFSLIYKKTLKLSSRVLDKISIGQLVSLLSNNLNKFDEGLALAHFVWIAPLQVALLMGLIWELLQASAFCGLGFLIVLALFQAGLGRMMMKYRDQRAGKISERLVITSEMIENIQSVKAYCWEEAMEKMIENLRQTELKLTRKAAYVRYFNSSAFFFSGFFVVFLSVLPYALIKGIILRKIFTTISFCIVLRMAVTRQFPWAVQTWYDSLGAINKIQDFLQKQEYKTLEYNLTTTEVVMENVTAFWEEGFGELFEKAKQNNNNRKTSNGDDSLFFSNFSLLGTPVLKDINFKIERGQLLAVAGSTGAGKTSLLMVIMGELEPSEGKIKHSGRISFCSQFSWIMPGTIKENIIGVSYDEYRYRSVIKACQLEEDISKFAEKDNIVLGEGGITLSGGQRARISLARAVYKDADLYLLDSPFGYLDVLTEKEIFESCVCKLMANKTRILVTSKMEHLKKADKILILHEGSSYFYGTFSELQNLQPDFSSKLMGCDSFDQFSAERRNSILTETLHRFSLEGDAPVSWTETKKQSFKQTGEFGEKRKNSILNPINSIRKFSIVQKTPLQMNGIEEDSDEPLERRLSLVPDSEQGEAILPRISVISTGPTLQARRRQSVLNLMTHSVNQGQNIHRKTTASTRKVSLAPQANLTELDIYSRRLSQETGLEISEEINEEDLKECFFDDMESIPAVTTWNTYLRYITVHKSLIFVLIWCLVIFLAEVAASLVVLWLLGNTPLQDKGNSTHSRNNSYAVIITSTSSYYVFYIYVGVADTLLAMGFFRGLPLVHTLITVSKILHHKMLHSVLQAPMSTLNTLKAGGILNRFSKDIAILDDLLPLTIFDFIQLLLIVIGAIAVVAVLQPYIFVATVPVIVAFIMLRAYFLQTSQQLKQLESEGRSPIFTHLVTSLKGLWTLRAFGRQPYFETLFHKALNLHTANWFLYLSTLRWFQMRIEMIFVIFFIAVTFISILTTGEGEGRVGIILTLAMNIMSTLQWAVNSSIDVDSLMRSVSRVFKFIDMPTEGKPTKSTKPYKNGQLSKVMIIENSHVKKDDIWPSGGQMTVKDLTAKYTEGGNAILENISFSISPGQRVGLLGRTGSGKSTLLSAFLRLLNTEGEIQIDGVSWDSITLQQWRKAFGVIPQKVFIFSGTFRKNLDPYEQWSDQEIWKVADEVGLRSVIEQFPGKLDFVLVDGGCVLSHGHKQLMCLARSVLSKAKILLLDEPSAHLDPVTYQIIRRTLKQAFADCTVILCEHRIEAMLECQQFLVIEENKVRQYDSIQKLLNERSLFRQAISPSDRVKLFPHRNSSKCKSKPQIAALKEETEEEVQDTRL

EC50 | SMILES
< 500 nM | CC1(C)Cc2cc(CN3CCCCC[C@](O)(C(F)(F)F)C4=NN=C(O4)c4nc(c(C(F)(F)F)cc4N)C3=O)ccc2O1 [Compound 150, (6R)-17-amino-12-[(2,2-dimethyl-3H-benzofuran-5-yl)methyl]-6-hydroxy-6,15-bis (trifluoromethyl)-19-oxa-3,4,12,18-tetrazatricyclo [12.3.1.12,5] nonadeca-1(18),2,4,14,1 6-pentaen-13-one]
< 500 nM | Nc1cc(C(F)(F)F)c2nc1-c1nnc(o1)[C@@](O)(C(F)(F)F)CCCCCN(Cc1ccc(C3(C(F)(F)F)CC3)cc1)C2=O [Compound 151]
< 500 nM | Nc1cc(C(F)(F)F)c2nc1-c1nnc(o1)[C@@](O)(C(F)(F)F)CCCCCN([C@H]1C[C@@H](c3ccccc3)C1)C2=O [Compound 152, (6R)-17-amino-6-hydroxy-12-(3-phenylcyclobutyl)-6,15-bis (trifluoromethyl)-19-oxa-3,4,12,18-tetrazatricyclo [12.3.1.12,5] nonadeca-1(18),2,4,14,1 6-pentaen-13-one]
< 500 nM | Nc1cc(C(F)(F)F)c2nc1-c1nnc(o1)[C@@](O)(C(F)(F)F)CCCCCN(Cc1ccc(OC(F)(F)F)c(Cl)c1)C2=O [Compound 153, (6R)-17-amino-12-[[3-chloro-4-(trifluoromethoxy)phenyl]methyl]-6-hydroxy-6,15-bis(trifluoromethyl)-19-oxa-3,4,12,18-tetrazatricyclo [12.3.1.12,5] nonadeca-1(18),2,4,14,1 6-pentaen-13-one]
< 500 nM | C[C@@H](c1ccc(OC(F)(F)F)cc1)N1CCCCC[C@](O)(C(F)(F)F)C2=NN=C(O2)c2nc(c(C(F)(F)F)cc2N)C1=O [Compound 154, (6R)-17-amino-6-hydroxy-12-[(1S)-1-[4-(trifluoromethoxy)phenyl]ethyl]-6,15-bis (trifluoromethyl)-19-oxa-3,4,12,18-tetrazatricyclo [12.3.1.12,5] nonadeca-1(18),2,4,14,1 6-pentaen-13-one]
< 500 nM | COc1ccccc1CN1CCCCC[C@](O)(C(F)(F)F)C2=NN=C(O2)c2nc(c(C(F)(F)F)cc2N)C1=O [Compound 155, (6R)-17-amino-6-hydroxy-12-[(2-methoxyphenyl)methyl]-6,15-bis (trifluoromethyl)-19-oxa-3,4,12,18-tetrazatricyclo [12.3.1.12,5] nonadeca-1(18),2,4,14,1 6-pentaen-13-one]
< 500 nM | Nc1cc(C(F)(F)F)c2nc1-c1nnc(o1)[C@@](O)(C(F)(F)F)CCCCCN(Cc1ccccc1C(F)(F)F)C2=O [Compound 156, (6R)-17-amino-6-hydroxy-6,15-bis (trifluoromethyl)-12-[[2-(trifluoromethyl)phenyl]methyl]-19-oxa-3,4,12,18-tetrazatricyclo [12.3.1.12,5] nonadeca-1(18),2,4,14,1 6-pentaen-13-one]
< 500 nM | Cc1cc(OC(F)(F)F)ccc1CN1CCCCC[C@](O)(C(F)(F)F)C2=NN=C(O2)c2nc(c(C(F)(F)F)cc2N)C1=O [Compound 157, (6R)-17-amino-6-hydroxy-12-[[2-methyl-4-(trifluoromethoxy)phenyl]methyl]-6,15-bis (trifluoromethyl)-19-oxa-3,4,12,18-tetrazatricyclo [12.3.1.12,5] nonadeca-1(18),2,4,14,1 6-pentaen-13-one]
< 500 nM | COc1cc(OC(F)(F)F)ccc1CN1CCCCC[C@](O)(C(F)(F)F)C2=NN=C(O2)c2nc(c(C(F)(F)F)cc2N)C1=O [Compound 158, (6R)-17-amino-6-hydroxy-12-[[2-methoxy-4-(trifluoromethoxy)phenyl]methyl]-6,15-bis(trifluoromethyl)-19-oxa-3,4,12,18-tetrazatricyclo [12.3.1.12,5] nonadeca-1(18),2,4,14,1 6-pentaen-13-one]
< 500 nM | Nc1cc(C(F)(F)F)c2nc1-c1nnc(o1)[C@@](O)(C(F)(F)F)CCCCCN(Cc1ccc(OC(F)(F)F)cc1F)C2=O [Compound 159, (6R)-17-amino-12-[[2-fluoro-4-(trifluoromethoxy)phenyl]methyl]-6-hydroxy-6,15-bis (trifluoromethyl)-19-oxa-3,4,12,18-tetrazatricyclo [12.3.1.12,5] nonadeca-1(18),2,4,14,1 6-pentaen-13-one]
< 500 nM | COc1ccc(CN2CCCCC[C@](O)(C(F)(F)F)C3=NN=C(O3)c3nc(c(C(F)(F)F)cc3N)C2=O)cc1F [Compound 160, (6R)-17-amino-12-[(3-fluoro-4-methoxy-phenyl)methyl]-6-hydroxy-6,15-bis (trifluoromethyl)-19-oxa-3,4,12,18-tetrazatricyclo [12.3.1.12,5] nonadeca-1(18),2,4,14,1 6-pentaen-13-one]
< 500 nM | Nc1cc(C(F)(F)F)c2nc1-c1nnc(o1)[C@@](O)(C(F)(F)F)CCCCCN(Cc1ccc(OC(F)(F)C(F)F)cc1)C2=O [Compound 161, (6R)-17-amino-6-hydroxy-12-[[4-(1,1,2,2-tetrafluoroethoxy)phenyl]methyl]-6,15-bis (trifluoromethyl)-19-oxa-3,4,12,18-tetrazatricyclo [12.3.1.12,5] nonadeca-1(18),2,4,14,1 6-pentaen-13-one]
< 500 nM | CCCc1ccc(CN2CCCCC[C@](O)(C(F)(F)F)C3=NN=C(O3)c3nc(c(C(F)(F)F)cc3N)C2=O)cc1 [Compound 162, (6R)-17-amino-6-hydroxy-12-[(4-propylphenyl)methyl]-6,15-bis (trifluoromethyl)-19-oxa-3,4,12,18-tetrazatricyclo [12.3.1.12,5] nonadeca-1(18),2,4,14,1 6-pentaen-13-one]
< 500 nM | COc1cc(CN2CCCCC[C@](O)(C(F)(F)F)C3=NN=C(O3)c3nc(c(C(F)(F)F)cc3N)C2=O)ccc1F [Compound 163, (6R)-17-amino-12-[(4-fluoro-3-methoxy-phenyl)methyl]-6-hydroxy-6,15-bis (trifluoromethyl)-19-oxa-3,4,12,18-tetrazatricyclo [12.3.1.12,5] nonadeca-1(18),2,4,14,1 6-pentaen-13-one]
< 500 nM | COc1cc(F)ccc1CN1CCCCC[C@](O)(C(F)(F)F)C2=NN=C(O2)c2nc(c(C(F)(F)F)cc2N)C1=O [Compound 164, (6R)-17-amino-12-[(4-fluoro-2-methoxy-phenyl)methyl]-6-hydroxy-6,15-bis (trifluoromethyl)-19-oxa-3,4,12,18-tetrazatricyclo [12.3.1.12,5] nonadeca-1(18),2,4,14,1 6-pentaen-13-one]
< 500 nM | Cc1cc(CN2CCCCC[C@](O)(C(F)(F)F)C3=NN=C(O3)c3nc(c(C(F)(F)F)cc3N)C2=O)ccc1OC(F)(F)F [Compound 165]
< 500 nM | Nc1cc(C(F)(F)F)c2nc1-c1nnc(o1)[C@@](O)(C(F)(F)F)CCCCCN(Cc1cccc(-c3ccccc3)c1)C2=O [Compound 166, (6R)-17-amino-6-hydroxy-12-[(3-phenylphenyl)methyl]-6,15-bis (trifluoromethyl)-19-oxa-3,4,12,18-tetrazatricyclo [12.3.1.12,5] nonadeca-1(18),2,4,14,1 6-pentaen-13-one]
> 1000 nM | Cc1cnc(CN2CCCCC[C@](O)(C(F)(F)F)C3=NN=C(O3)c3nc(c(C(F)(F)F)cc3N)C2=O)cn1 [Compound 167, (6R)-- 17-amino-6-hydroxy-12-[(5-methylpyrazin-2-yl)methyl]-6,15-bis (trifluoromethyl)-19-oxa-3,4,12,18-tetrazatricyclo [12.3.1.12,5] nonadeca-1(18),2,4,14,1 6-pentaen-13-one]
< 500 nM | CCCc1ccccc1CN1CCCCC[C@](O)(C(F)(F)F)C2=NN=C(O2)c2nc(c(C(F)(F)F)cc2N)C1=O [Compound 168, (6R)-17-amino-6-hydroxy-12-[(2-propylphenyl)methyl]-6,15-bis (trifluoromethyl)-19-oxa-3,4,12,18-tetrazatricyclo [12.3.1.12,5] nonadeca-1(18),2,4,14,1 6-pentaen-13-one]
> 1000 nM | Cc1cnc(CN2CCCCC[C@](O)(C(F)(F)F)C3=NN=C(O3)c3nc(c(C(F)(F)F)cc3N)C2=O)nc1 [Compound 169, (6R)-17-amino-6-hydroxy-12-[(5-methylpyrimidin-2-yl)methyl]-6,15-bis (trifluoromethyl)-19-oxa-3,4,12,18-tetrazatricyclo [12.3.1.12,5] nonadeca-1(18),2,4,14,1 6-pentaen-13-one]
< 500 nM | CC(C)(C)Cc1ccc(CN2CCCCC[C@](O)(C(F)(F)F)C3=NN=C(O3)c3nc(c(C(F)(F)F)cc3N)C2=O)cc1 [Compound 170, (6R)-17-amino-12-[[4-(2,2-dimethylpropyl)phenyl]methyl]-6-hydroxy-6,15-bis (trifluoromethyl)-19-oxa-3,4,12,18-tetrazatricyclo [12.3.1.12,5] nonadeca-1(18),2,4,14,1 6-pentaen-13-one]
< 500 nM | CC(C)(C)c1ncc(CN2CCCCC[C@](O)(C(F)(F)F)C3=NN=C(O3)c3nc(c(C(F)(F)F)cc3N)C2=O)cn1 [Compound 171, (6R)-17-amino-12-[(2-tert-butylpyrimidin-5-yl)methyl]-6-hydroxy-6,15-bis (trifluoromethyl)-19-oxa-3,4,12,18-tetrazatricyclo [12.3.1.12,5] nonadeca-1(18),2,4,14,1 6-pentaen-13-one]
< 500 nM | CC(C)Oc1cccc(CN2CCCCC[C@](O)(C(F)(F)F)C3=NN=C(O3)c3nc(c(C(F)(F)F)cc3N)C2=O)c1 [Compound 172, (6R)-17-amino-6-hydroxy-12-[(3-isopropoxyphenyl)methyl]-6,15-bis (trifluoromethyl)-19-oxa-3,4,12,18-tetrazatricyclo [12.3.1.12,5] nonadeca-1(18),2,4,14,1 6-pentaen-13-one]
